Data: PMC3510080, “Identification of Compounds with Anti-Proliferative Activity against Trypanosoma brucei brucei Strain 427 by a Whole Cell Viability Based HTS Campaign” (PLoS Neglected Tropical Diseases, 2012)
≈ marks a conversion by molar mass, not a printed value. Read-outs that look alike come from different tables or passages of the source.

Columns and labels:
[1] = test system: T.b. brucei; experiment: Time to kill assay (Presto Blue); format: cell-based, Trypanosoma brucei brucei; settings: for IC50: Trypanosoma brucei
Procedure: The starting dose was 40 µM, and the IC50 values were determined from a 16 point dose-response curve. The assay conditions were the same as previously described for the Alamar Blue assay, except that 10 µL of a final 10% concentration of Presto Blue in HMI-9 medium was added as the indicator of viable cells, at various time points. At the first time point, following 20 hours of incubation with compounds, Presto Blue was added to the wells and incubation at 37°C continued. Plates were read every hour and returned to continue incubation at 37°C. This was performed to determine at which time point there was a reproducible signal (Z' of >0.5), using puromycin as a […].

[2] = test system: T.b. brucei; experiment: Determination of the cidal action of compounds (MIC and parasite counts); format: cell-based, Trypanosoma brucei brucei; settings: for MIC: Trypanosoma brucei, minimum concentration with plateau of activity (>95%) in Alamar Blue concentration response curve, read-out: minimum inhibitory concentration (MIC); for action cidal or static at the MIC: parasites cleared by 72 hours at MIC; for incubation time at the MIC for complete clearance of T.b. brucei parasites: cell counts at 24, 48 and 72 hours (29 hours from Presto Blue)
Excerpt: The MIC was extrapolated as the minimum concentration at which there was a plateau of activity in the assay (>95% activity).

[3] = test system: T. cruzi Tulahuen strain C2C4; experiment: T. cruzi Tulahuen strain C2C4 β-galactosidase assay; SI versus L6 cells; format: cell-based, Trypanosoma cruzi; settings: for IC50: in L6 host cells, 96 h, read-out: Compound activity T.C (IC50); for Selectivity Index T.C: relative to L6 cells
Procedure: (§1) L6 rat skeletal myoblasts, [29] were purchased from the American Type Culture Collection (ATCC, Rockville, MD, USA; ATCC number CRL 1458). This cell line was used for cytotoxicity testing to calculate an SI against T.b. rhodesiense and screened alongside the T.b. rhodesiense, P. falciparum, T. cruzi and L. donovani assays. L6 were also the host cells for the T. cruzi assay. Assays were performed in 96-well microtiter plates, each well containing 100 µl of RPMI 1640 medium supplemented with 1% L-glutamine (200 mM), 10% FCS, and 4000 L6 cells. Serial drug dilutions of eleven 3-fold dilution steps covering a range from 100 to 0.002 µg/ml were prepared. After 70 hours of incubation the plates were inspected under an inverted microscope to assure growth of the controls and sterile conditions. Ten µl of resazurin solution (resazurin, 12.5 mg in 100 ml double-distilled water) was then added to each well and the plates incubated for another 2 hours. Then the plates were read with a Spectramax Gemini XS microplate fluorometer (Molecular Devices Cooperation, Sunnyvale, CA, USA) using an excitation wavelength of 536 nm and an emission wavelength of 588 nm. Data was analysed using the microplate reader software Softmax Pro (Molecular Devices, USA). Podophyllotoxin was used as a positive control in the assay.
Rat skeletal myoblasts (L6 cells) were seeded in 96-well microtitre plates at 2000 cells/well in 100 µl RPMI 1640 medium with 10% FCS and 2 mM l-glutamine. After 24 hours the medium was removed and replaced by 100 µl per well containing 5000 trypomastigote forms of T. cruzi Tulahuen strain C2C4 containing the β-galactosidase (Lac Z) gene. After 48 hours the medium was removed from the wells and replaced by 100 µl fresh medium with or without a serial drug dilution of eleven 3-fold dilution steps covering a range from 100 to 0.002 µg/ml. After 96 hours of incubation the plates were inspected under an inverted microscope to assure growth of the controls and sterility. Then 50 µl of the substrate, containing chlorophenol red-β-D-galactopyranoside (CPRG) and Nonidet, was added to all wells. A colour reaction developed within 2–6 hours that could be read photometrically at 540 nm. Data were transferred into the graphic programme Softmax Pro (Molecular Devices, USA), which calculated IC50 values. The drug benznidazole was used as a positive standard in this assay.

[4] = test system: L. donovani strain MHOM/ET/67/L82 axenic amastigotes; experiment: L. donovani axenic amastigote fluorescence assay; SI versus L6 cells; format: cell-based, Leishmania donovani; settings: for IC50: axenic amastigotes, 70 h, read-out: Compound activity L.D (IC50); for Selectivity Index L.D: relative to L6 cells
Procedure: as §1
Amastigotes of L. donovani strain MHOM/ET/67/L82 were grown in axenic culture at 37°C in SM medium at pH 5.4 supplemented with 10% heat-inactivated FCS under an atmosphere of 5% CO2 in air. One hundred µl of culture medium containing 10^5 amastigotes from axenic culture with or without a serial drug dilution were seeded in 96-well microtitre plates. Serial drug dilutions of eleven 3-fold dilution steps covering a range from 100 to 0.002 µg/ml were prepared. After 70 hours of incubation the plates were inspected under an inverted microscope to assure growth of the controls and sterile conditions. Ten µl of resazurin solution (12.5 mg resazurin dissolved in 100 ml distilled water) were then added to each well and the plates incubated for another 2 hours. The plates were then read with a Spectramax Gemini XS microplate fluorometer (Molecular Devices, USA) using an excitation wavelength of 536 nm and an emission wavelength of 588 nm. Data was analysed using the software Softmax Pro (Molecular Devices, USA). Decrease of fluorescence ( = inhibition) was expressed as percentage of the fluorescence of control cultures and plotted against the drug concentrations. From the sigmoidal inhibition curves the IC50 values were calculated. Miltefosine served as a known drug control in this assay.

[5] = 29 hours after addition of compound, 2 experiments, read-out: Activity (IC50 value) 29 hours
[6] = 48 hours after addition of compound, read-out: Activity (IC50 value) 48 hours
[7] = read-out: Activity (IC50 value) 72 hours, 72 hours after addition of compound
[8] = Trypanosoma cruzi, TULAHUEN, L6, 96 h

| Structure (SMILES) | IC50 [1, 5] | IC50 [1, 6] | IC50 [1, 7] | MIC [2] | action cidal or static at the MIC [2] | IC50 [3, 8] | IC50 [3] | Selectivity Index T.C [3] | IC50 ([4]; Leishmania donovani, L6, 70 h) | Selectivity Index L.D [4] | exposure time at which stable/maximum IC50 value was reached [1] | population remaining at the MIC, 24 hours ([2]; 24 hours) | population remaining at the MIC, 48 hours ([2]; 48 hours) | IC50 [4] | incubation time at the MIC for complete clearance of T.b. brucei parasites [2] |
| --- | --- | --- | --- | --- | --- | --- | --- | --- | --- | --- | --- | --- | --- | --- | --- |
| CC(C)(C)C(=O)NCCc1csc(-c2cccc(F)c2)n1 [Compound 1] | 898 ± 332 nM | 691 ± 66.4 nM | 1030 ± 18.4 nM | 3.97 µM (≈ 1.22 µg/mL) | cidal | 2300 nM | 2320 ± 60.1 nM | 26.8 | 46100 ± 22400 nM | 1.35 |  |  |  |  |  |
| O=C(NCCc1n[nH]c(-c2ccc(F)cc2)n1)c1cccc(F)c1 [Compound 2] | 4840 ± 449 nM | 3830 ± 873 nM | 500 ± 43.1 nM | 19.8 µM (≈ 6.5 µg/mL) | cidal | 19300 ± 90.5 nM |  | 6.20 | 47300 ± 324 nM | 2.53 |  |  |  |  |  |
| CCOc1ccc(OCc2ccc(C(=O)N3CCCC(C)C3)cc2)cc1 (stereo not shown) [Compound 3] |  |  |  |  |  | 19100 ± 5320 nM |  | 2.56 | 16100 ± 1700 nM | 3.09 |  |  |  |  |  |
| Cc1cc(O)nc(-n2nc(C)cc2NC(=O)C2CCCC2)n1 [Compound 4] |  |  |  |  |  | 15400 ± 4290 nM |  | 0.0588 | 488 ± 154 nM | 1.84 |  |  |  |  |  |
| CCS(=O)(=O)N1CCCc2ccc(NS(=O)(=O)c3ccccc3F)cc21 [Compound 5] |  |  |  |  |  | 14800 ± 151 nM |  | 1.47 | 6600 ± 1560 nM | 3.29 |  |  |  |  |  |
| CCC(C)NC(=O)c1nc(-c2ccccc2)cnc1N (stereo not shown) [Compound 6] | 3090 ± 1380 nM | 177 ± 11 nM | 111 ± 50.2 nM | 9.92 µM (≈ 2.68 µg/mL) | cidal | 19100 ± 5320 nM |  | 0.933 | 34000 ± 5600 nM | 0.525 | 48 h |  |  |  |  |
| O=C(Nc1ccc(Cl)c(-c2nc3ncccc3o2)c1)c1ccco1 [Compound 7] | 178 ± 7 nM | 142 ± 38.7 nM | 220 ± 17.6 nM | 0.99 µM (≈ 0.336 µg/mL) | cidal | 230 ± 49.6 nM |  |  | 1800 nM |  |  | 0.41% | 0.06% | 1820 ± 277 nM |  |
| CCc1ccccc1N=C(NCCN1CCOCC1)NC(=O)c1ccccc1 [Compound 8] |  |  |  |  |  | 82000 nM | 82100 ± 1690 nM | 1.61 | > 263000 nM |  |  |  |  |  |  |
| N=C(N)c1ccc(OCCCCCOc2ccc(C(=N)N)cc2)cc1 [Pentamidine, pentamidine, reference compound] | 9.13 ± 2.76 nM | 3.41 ± 0.661 nM | 4.66 ± 0.936 nM | 0.04 µM (≈ 0.0136 µg/mL) |  |  |  |  |  |  | 48 h |  |  |  | 72 h |
| COc1ccc(C[C@H](N)C(=O)N[C@H]2[C@@H](O)[C@H](n3cnc4c(N(C)C)ncnc43)O[C@@H]2CO)cc1 [Puromycin, puromycin, reference compound] | 152 ± 65.4 nM | 58.1 ± 10.1 nM | 68.6 ± 0.283 nM | 1.15 µM (≈ 0.542 µg/mL) |  |  |  |  |  |  | 48 h |  |  |  | 24 h |
